One experiment addresses T1, cloned human CCR8 receptor stably expressed in L1.2 cells (Homo sapiens, UniProt P51685).
T1 construct: expressed in transfected cells
Briefly: whole cell binding screen: inhibition of biotinylated human I309 binding to CCR8 (FMAT 8100 HTS). Particulars: Ki of compounds to inhibit I-309 binding to CCR8, L1.2/hCCR8 cells, biotinylated human I-309, 10 point concentration response starting at 10 μM. In outline: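 L1.2 murine pre-B cells stably expressing human CCR8 (4.0×10^5 cells/mL) in HBSS/HEPES/fatty-acid-free BSA/azide buffer were mixed with biotinylated human I309 and compounds for 0.5 h, read by FMAT fluorescence. 10-point curves from 10 μM final; percent inhibition normalized to no-inhibitor and 100 nM unlabeled I309 controls.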
T1 sequence (P51685 whole entry): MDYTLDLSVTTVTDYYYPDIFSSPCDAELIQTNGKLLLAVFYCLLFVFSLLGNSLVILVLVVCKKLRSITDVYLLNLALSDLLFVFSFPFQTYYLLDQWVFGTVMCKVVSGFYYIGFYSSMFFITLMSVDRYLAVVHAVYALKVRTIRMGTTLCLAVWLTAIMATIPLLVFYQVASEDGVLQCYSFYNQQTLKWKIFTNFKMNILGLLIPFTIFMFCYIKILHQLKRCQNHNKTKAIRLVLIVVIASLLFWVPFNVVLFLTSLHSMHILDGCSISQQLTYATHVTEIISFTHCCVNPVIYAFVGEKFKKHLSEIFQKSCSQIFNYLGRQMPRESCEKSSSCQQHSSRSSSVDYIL
What is called Ki is a dissociation constant, usually derived from enzyme kinetics or from competition with a known ligand. `CCOC(=O)N1CCC(NS(=O)(=O)c2ccc(C(=O)NC3CCCCC3)c3ccccc23)CC1` [Compound F-3, 4-(4-Cyclohexylcarbamoyl-naphthalene-1-sulfonylamino)-piperidine-1-carboxylic acid ethyl ester] had a Ki of less than 500 nM. `Cc1ccccc1C(=O)Nc1ccc(S(=O)(=O)NC2CCN(C(=O)C(C)C)CC2)c2ccccc12` [Compound C-51, N-[4-(1-Isobutyryl-piperidin-4-ylsuffamoyl)-naphthalen-1-yl]-2-methyl-benzamide] came in with an inhibitory constant (Ki) of less than 500 nM. As to `CCOC(=O)N1CCC(NS(=O)(=O)c2ccc(NC(=O)c3ccccc3C)c3ccccc23)CC1` [Compound A-40, 4-[4-(2-Methyl-benzoylamino)-naphthalene-1-sulfonylamino]-piperidine-1-carboxylic acid ethyl ester], the Ki is less than 500 nM.

The experiment is the same for the next values; noted with them: L1.2/hCCR8 cells, biotinylated human I-309, 10 point concentration response starting at 10 μM; read-out: Ki of compounds to inhibit I-309 binding to CCR8.
As for `CCC(=O)N1CCC(NS(=O)(=O)c2ccc(NC(=O)c3ccccc3OC)c3ccccc23)CC1` [Compound C-102, 2-Methoxy-N-[4-(1-propionyl-piperidin-4-ylsulfamoyl)-naphthalen-1-yl]-benzamide], the Ki was less than 500 nM. `Cc1ccccc1C(=O)Nc1ccc(S(=O)(=O)NC2CCN(C(=O)CN3CCCCC3)CC2)c2ccccc12` [Compound C-148, 2-Methyl-N-{4-[1-(2-piperidin-1-yl-acetyl)-piperidin-4-ylsulfamoyl]-naphthalen-1-yl}-benzamide]: the Ki is less than 30000 nM. Turning to `Cc1ccccc1C(=O)Nc1ccc(S(=O)(=O)N[C@@H]2[C@H](C)CN(Cc3ccccc3)C[C@@H]2C)c2ccccc12` [Compound A-46, (±)-(cis, cis)-N-[4-(1-Benzyl-3,5-dimethyl-piperidin-4-ylsulfamoyl)-naphthalen-1-yl]-2-methyl-benzamide], the inhibition constant (Ki) is less than 30000 nM. Regarding `Cc1ccccc1C(=O)Nc1ccc(S(=O)(=O)N[C@@H]2[C@H](C)CN(C(=O)N(C)C)C[C@@H]2C)c2ccccc12` [Compound C-71, (±)-(cis,cis)-3,5-Dimethyl-4-[4-(2-methyl-benzoylamino)-naphthalene-1-sulfonylamino]-piperidine-1-carboxylic acid dimethylamide], the Ki was less than 1000 nM. As for `CC(C)NS(=O)(=O)c1ccc(NC(=O)c2ccccc2)c2ccccc12` [Compound A-11, N-(4-Isopropylsulfamoyl-naphthalen-1-yl)-benzamide], the Ki is less than 30000 nM. Still for that read-out and setting: in the case of `CCOC(=O)N1CC[C@H](NS(=O)(=O)c2ccc(NC(=O)c3ccccc3C)c3c2CCCC3)[C@H](C)C1` (racemic) [Compound E-21, (±)-cis-3-Methyl-4-[4-(2-methyl-benzoylamino)-5,6,7,8-tetrahydro-naphthalene-1-sulfonylamino]-piperidine-1-carboxylic acid ethyl ester] it was less than 500 nM; in that of `Cc1ccccc1C(=O)Nc1ccc(S(=O)(=O)N[C@@H]2CCN(C(=O)CN3CCCC3)C[C@@H]2C)c2ccccc12` (racemic) [Compound C-142, (±)-2-Methyl-N-{4-[cis-3-methyl-1-(2-pyrrolidin-1-yl-acetyl)-piperidin-4-ylsulfamoyl]-naphthalen-1-yl}-benzamide], less than 500 nM; in that of `CCOC(=O)N1CC[C@H](NS(=O)(=O)c2cccc3c(C(=O)Nc4ccccc4C)cccc23)[C@@H](C)C1` (racemic) [Compound H-40, (±)-trans-3-Methyl-4-(5-o-tolylcarbamoyl-naphthalene-1-sulfonylamino)-piperidine-1-carboxylic acid ethyl ester], less than 500 nM. Consider `COc1ccc(NS(=O)(=O)c2ccc(NC(=O)c3cccc(OC)c3)c3ccccc23)cc1` [Compound B-5, 3-Methoxy-N-[4-(4-methoxy-phenylsulfamoyl)-naphthalen-1-yl]-benzamide], for which the Ki was less than 1000 nM. The same measure, in the same setting: next, `O=C(Nc1ccc(S(=O)(=O)NC2CCNCC2)c2ccccc12)c1ccccc1F` [Compound C-99, 2-Fluoro-N-[4-(piperidin-4-ylsulfamoyl)-naphthalen-1-yl]-benzamide]: less than 500 nM.
